The source of these data is ChEMBL document CHEMBL5096194, “Development of Alectinib-Based PROTACs as Novel Potent Degraders of Anaplastic Lymphoma Kinase (ALK)” (J Med Chem, 2021).

Data set [1] has as its system KARPAS-299. The experiment in a line: Antitumor activity against human KARPAS-299 cells xenografted in NCG mouse assessed as reduction in tumor volume at 25 to 50 mg/kg, ip administered once every day for 3 weeks and measured every 3 days. The settings on record: dose 25-50 mg/kg. Type of data set: functional, organism-based. (In general: Xenograft models place foreign cells or tissue in a host animal.)

Data set [2] in a line: Toxicity in NCG mouse xenografted with human KARPAS-299 cells assessed as liver damage at 10 mg/kg, iv administered once every day for 3 weeks by H and E staining based analysis. Type of data set: organism-based. To be noted: in vivo, 504 h.
Data set [3] deals with KARPAS-299. In words: Downregulation of SESN2 protein expression in human KARPAS-299 cells at 1 uM incubated for 24 hrs by iTRAQ proteomics analysis. The format is functional, cell-based.
The test system of data set [4] is KARPAS-299. In words: Antitumor activity against human KARPAS-299 cells xenografted in NCG mouse assessed as increase in ALK protein degradation at 25 to 50 mg/kg, ip administered once every day for 3 weeks. Type of data set: functional, organism-based. To be noted: dose 25-50 mg/kg.
For data set [5], the target named is ALK tyrosine kinase receptor (Homo sapiens, UniProt Q9UM73).
A short description of data set [6]: Toxicity in NCG mouse xenografted with human KARPAS-299 cells assessed as heart damage at 10 mg/kg, iv administered once every day for 3 weeks by H & E staining based analysis. The settings on record: in vivo, 504 h. Type of data set: organism-based.
Data set [7] concerns the target T1, Protein cereblon/ALK tyrosine kinase receptor/Nucleophosmin (Homo sapiens) (UniProt Q9UM73+P06748+Q96SW2). The experiment in a line: Protac activity at CRBN/NPM-ALK in human KARPAS-299 cells assessed as induction of NPM-ALK fusion protein degradation at 2 uM incubated for 24 hrs by Western blot analysis. The format is cell-based.
In data set [8] the test system is BaF3. In words: Antiproliferative activity against mouse BaF3 cells assessed as cell viability at 1 uM incubated for 72 hrs by Celltitre-Glo assay relative to control. The format is functional. To be noted: read-out: Activity.
Data set [9] has as its system KARPAS-299. The experiment in a line: Downregulation of jun-B protein expression in human KARPAS-299 cells at 1 uM incubated for 24 hrs by iTRAQ proteomics analysis. The format is functional, cell-based.
In data set [10] the test system is BaF3. In words: Antiproliferative activity against crizotinib-resistant mouse BaF3 cells expressing EML-ALK L1152R mutant assessed as cell viability at 1 uM incubated for 72 hrs by Celltitre-Glo assay relative to control. The format is functional. To be noted: read-out: Activity.
Another data set deals with NCI-H3122. The experiment in a line: Antiproliferative activity against ALK-positive human NCI-H3122 cells assessed as inhibition of cell proliferation measured after 72 hrs by MTT assay. The format is functional, cell-based. To be noted: NCI-H3122, 72 h. In general terms: Formazan colour is commonly taken as a measure of viable cells.
The subject of data set [11] is KARPAS-299. In words: Antitumor activity against human KARPAS-299 cells xenografted in NCG mouse assessed as reduction in tumor volume at 5 to 10 mg/kg, iv administered once every day for 3 weeks and measured every 3 days. Type of data set: functional, organism-based. The settings on record: dose 5-10 mg/kg.
In data set [12] the target is Protein cereblon/ALK tyrosine kinase receptor/Nucleophosmin (Homo sapiens, UniProt P06748+Q96SW2+Q9UM73). The experiment in a line: Protac activity at CRBN/NPM-ALK in human KARPAS-299 cells assessed as induction of NPM-ALK fusion protein degradation incubated for 48 hrs by Western blot analysis. The format is cell-based.
Data set [13] can be described thus: Toxicity in NCG mouse xenografted with human KARPAS-299 cells assessed as body weight loss at 10 mg/kg, iv administered once every day for 3 weeks. Type of data set: organism-based. The settings on record: in vivo, 504 h.
Data set [14] in a line: Observed oral clearance in Sprague-Dawley rat at 50 mg/kg, ip administered as single dose measured for 24 hrs by LC-MS/MS analysis. The format is ADME, organism-based. The settings on record: in vivo.
The subject of data set [15] is KARPAS-299. The experiment in a line: Antitumor activity against human KARPAS-299 cells xenografted in NCG mouse assessed as tumor growth inhibition at 10 mg/kg, iv administered once every day for 3 weeks and measured every 3 days relative to control. The format is functional. To be noted: KARPAS-299, 504 h, read-out: TGI.
Data set [16] in a line: Tmax in Sprague-Dawley rat at 50 mg/kg, ip administered as single dose measured for 24 hrs by LC-MS/MS analysis. The format is ADME, organism-based. To be noted: in vivo.
Data set [17] deals with BaF3. In words: Antiproliferative activity against crizotinib-resistant mouse BaF3 cells expressing EML-ALK L1196M mutant assessed as cell viability at 1 uM incubated for 72 hrs by Celltitre-Glo assay relative to control. To be noted: read-out: Activity. Type of data set: functional.
The target of data set [18] is T1, Protein cereblon/ALK tyrosine kinase receptor/Nucleophosmin (Homo sapiens). The experiment in a line: Protac activity at CRBN/NPM-ALK in human KARPAS-299 cells assessed as induction of NPM-ALK fusion protein degradation at 1 uM incubated for 24 hrs by Western blot analysis relative to control. Type of data set: cell-based. (In general: In western blotting, separated proteins are transferred to a membrane and probed.)

Data set [19] addresses Protein cereblon/ALK tyrosine kinase receptor/Echinoderm microtubule-associated protein-like 4 (Homo sapiens) (UniProt Q9UM73+Q9HC35+Q96SW2). The experiment in a line: Protac activity at CRBN/EML4-ALK in human NCI-H3122 cells assessed as reduction in EML4-ALK fusion protein level at 100 nM measured after 16 hrs by Western blot analysis relative to control. Type of data set: cell-based. Also on record: scale not given: the % may be the effect or the level left.

For data set [20], the system named is BaF3. The experiment in a line: Antiproliferative activity against mouse BaF3 cells expressing wild type EML-ALK assessed as cell viability at 1 uM incubated for 72 hrs by Celltitre-Glo assay relative to control. Type of data set: functional. To be noted: read-out: Activity.
The nature of data set [21]: Volume of distribution in Sprague-Dawley rat at 1 mg/kg, iv administered as single dose measured for 24 hrs by LC-MS/MS analysis. The format is ADME, organism-based. The settings on record: in vivo.
The nature of data set [22]: AUC (0 to t) in Sprague-Dawley rat at 50 mg/kg, ip administered as single dose measured for 24 hrs by LC-MS/MS analysis. The format is ADME, organism-based. Also on record: dose 50 mg/kg, time 24 hrs, route ip. The settings on record: in vivo.
The target of data set [23] is Signal transducer and activator of transcription 3 (Homo sapiens) (UniProt P40763). The experiment in a line: Inhibition of STAT3 phosphorylation in human KARPAS-299 cells as 100 nM measured after 24 hrs by Western blot analysis relative to control. The format is cell-based.
Chain of Signal transducer and activator of transcription 3 (Homo sapiens) (P40763 whole entry): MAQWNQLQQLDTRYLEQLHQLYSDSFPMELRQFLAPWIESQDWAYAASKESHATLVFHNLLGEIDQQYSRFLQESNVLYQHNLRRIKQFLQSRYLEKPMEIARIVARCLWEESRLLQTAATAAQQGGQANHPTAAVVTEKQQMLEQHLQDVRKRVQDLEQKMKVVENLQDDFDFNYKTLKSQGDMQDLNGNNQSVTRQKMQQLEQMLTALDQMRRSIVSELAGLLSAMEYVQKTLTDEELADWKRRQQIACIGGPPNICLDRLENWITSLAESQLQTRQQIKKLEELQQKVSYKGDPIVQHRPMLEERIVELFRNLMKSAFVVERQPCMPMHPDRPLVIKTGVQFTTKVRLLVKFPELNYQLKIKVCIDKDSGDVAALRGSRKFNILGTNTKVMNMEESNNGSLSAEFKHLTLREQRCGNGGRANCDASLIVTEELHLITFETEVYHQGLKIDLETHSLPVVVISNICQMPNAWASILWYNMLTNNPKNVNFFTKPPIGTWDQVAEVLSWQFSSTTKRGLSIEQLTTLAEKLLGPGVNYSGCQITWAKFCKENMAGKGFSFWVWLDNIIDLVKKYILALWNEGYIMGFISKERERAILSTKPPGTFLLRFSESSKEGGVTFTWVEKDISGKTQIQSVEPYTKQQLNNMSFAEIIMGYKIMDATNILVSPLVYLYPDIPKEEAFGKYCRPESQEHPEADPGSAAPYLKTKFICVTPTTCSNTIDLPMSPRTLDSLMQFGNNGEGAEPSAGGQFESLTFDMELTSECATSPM

Each structure is given as a SMILES string. Activity calls are given as the source filed them. The calls are words filed in the database; no cut-off is given here. Bounds are passed on as bounds.

T1 sequence (P06748 whole entry partner, the tested form may be a part): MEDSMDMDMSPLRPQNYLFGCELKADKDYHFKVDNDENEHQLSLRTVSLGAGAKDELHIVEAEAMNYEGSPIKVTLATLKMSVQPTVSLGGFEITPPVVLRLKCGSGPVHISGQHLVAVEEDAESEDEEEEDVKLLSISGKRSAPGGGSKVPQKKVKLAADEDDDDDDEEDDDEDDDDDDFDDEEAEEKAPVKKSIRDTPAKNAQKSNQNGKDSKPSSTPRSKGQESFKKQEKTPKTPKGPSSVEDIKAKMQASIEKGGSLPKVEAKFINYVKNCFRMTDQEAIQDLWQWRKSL
T1 sequence (Q96SW2 whole entry partner, the tested form may be a part): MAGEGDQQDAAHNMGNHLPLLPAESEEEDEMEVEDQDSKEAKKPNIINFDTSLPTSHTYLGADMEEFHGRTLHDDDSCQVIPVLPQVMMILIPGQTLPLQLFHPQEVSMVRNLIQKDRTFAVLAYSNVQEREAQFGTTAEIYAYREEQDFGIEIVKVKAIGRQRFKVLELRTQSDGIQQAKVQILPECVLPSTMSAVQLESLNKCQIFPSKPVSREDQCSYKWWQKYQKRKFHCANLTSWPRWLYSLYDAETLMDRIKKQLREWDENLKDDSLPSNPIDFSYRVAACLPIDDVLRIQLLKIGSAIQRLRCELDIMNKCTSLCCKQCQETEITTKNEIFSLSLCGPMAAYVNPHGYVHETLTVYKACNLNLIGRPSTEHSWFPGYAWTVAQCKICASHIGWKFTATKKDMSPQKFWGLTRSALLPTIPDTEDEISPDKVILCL
T1 sequence (Q9UM73 19-1620 limits assumed): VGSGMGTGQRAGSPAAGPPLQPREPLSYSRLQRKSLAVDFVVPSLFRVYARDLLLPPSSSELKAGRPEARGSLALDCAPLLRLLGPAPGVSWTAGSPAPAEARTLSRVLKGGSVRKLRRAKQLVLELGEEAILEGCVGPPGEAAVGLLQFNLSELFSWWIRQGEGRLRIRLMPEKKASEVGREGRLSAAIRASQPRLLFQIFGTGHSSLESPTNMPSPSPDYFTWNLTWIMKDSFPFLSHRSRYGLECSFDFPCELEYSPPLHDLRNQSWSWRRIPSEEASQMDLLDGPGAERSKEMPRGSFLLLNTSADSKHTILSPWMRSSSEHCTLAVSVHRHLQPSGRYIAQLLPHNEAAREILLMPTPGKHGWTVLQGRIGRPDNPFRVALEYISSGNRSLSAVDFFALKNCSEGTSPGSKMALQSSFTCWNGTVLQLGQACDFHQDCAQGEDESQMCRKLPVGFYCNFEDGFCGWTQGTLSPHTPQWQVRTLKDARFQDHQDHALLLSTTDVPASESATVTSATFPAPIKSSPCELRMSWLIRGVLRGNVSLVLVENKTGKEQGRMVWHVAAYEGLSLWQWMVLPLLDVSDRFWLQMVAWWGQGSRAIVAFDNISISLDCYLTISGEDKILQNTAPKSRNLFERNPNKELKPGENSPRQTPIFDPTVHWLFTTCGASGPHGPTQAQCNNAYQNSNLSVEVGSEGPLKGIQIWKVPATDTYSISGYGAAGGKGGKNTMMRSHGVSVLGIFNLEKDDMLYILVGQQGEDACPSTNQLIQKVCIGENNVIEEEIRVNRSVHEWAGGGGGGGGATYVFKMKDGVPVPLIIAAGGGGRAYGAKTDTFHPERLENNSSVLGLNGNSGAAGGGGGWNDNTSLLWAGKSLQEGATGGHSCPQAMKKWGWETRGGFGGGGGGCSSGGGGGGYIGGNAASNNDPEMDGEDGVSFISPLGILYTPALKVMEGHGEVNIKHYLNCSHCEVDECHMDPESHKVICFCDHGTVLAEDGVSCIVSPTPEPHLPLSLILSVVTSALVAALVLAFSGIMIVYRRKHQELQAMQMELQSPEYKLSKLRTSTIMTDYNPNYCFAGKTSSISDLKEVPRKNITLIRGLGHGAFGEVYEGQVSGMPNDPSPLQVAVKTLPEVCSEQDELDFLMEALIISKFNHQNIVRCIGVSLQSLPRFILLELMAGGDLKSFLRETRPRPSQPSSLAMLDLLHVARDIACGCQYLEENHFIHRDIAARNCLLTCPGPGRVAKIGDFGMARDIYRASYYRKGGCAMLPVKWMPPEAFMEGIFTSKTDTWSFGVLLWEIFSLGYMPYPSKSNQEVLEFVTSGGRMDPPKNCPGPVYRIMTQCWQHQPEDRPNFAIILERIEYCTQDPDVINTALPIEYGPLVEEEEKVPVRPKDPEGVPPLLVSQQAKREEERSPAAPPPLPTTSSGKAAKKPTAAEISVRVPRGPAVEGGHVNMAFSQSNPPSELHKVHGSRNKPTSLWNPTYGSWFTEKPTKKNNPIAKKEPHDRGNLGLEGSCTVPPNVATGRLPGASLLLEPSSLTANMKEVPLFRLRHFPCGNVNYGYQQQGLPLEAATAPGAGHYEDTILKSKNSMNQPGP
Chain of Protein cereblon/ALK tyrosine kinase receptor/Echinoderm microtubule-associated protein-like 4 (Homo sapiens) (Q96SW2 whole entry partner, the tested form may be a part): as the sequence (Q96SW2 whole entry partner, the tested form may be a part) above
Chain of Protein cereblon/ALK tyrosine kinase receptor/Echinoderm microtubule-associated protein-like 4 (Homo sapiens) (Q9HC35 whole entry partner, the tested form may be a part): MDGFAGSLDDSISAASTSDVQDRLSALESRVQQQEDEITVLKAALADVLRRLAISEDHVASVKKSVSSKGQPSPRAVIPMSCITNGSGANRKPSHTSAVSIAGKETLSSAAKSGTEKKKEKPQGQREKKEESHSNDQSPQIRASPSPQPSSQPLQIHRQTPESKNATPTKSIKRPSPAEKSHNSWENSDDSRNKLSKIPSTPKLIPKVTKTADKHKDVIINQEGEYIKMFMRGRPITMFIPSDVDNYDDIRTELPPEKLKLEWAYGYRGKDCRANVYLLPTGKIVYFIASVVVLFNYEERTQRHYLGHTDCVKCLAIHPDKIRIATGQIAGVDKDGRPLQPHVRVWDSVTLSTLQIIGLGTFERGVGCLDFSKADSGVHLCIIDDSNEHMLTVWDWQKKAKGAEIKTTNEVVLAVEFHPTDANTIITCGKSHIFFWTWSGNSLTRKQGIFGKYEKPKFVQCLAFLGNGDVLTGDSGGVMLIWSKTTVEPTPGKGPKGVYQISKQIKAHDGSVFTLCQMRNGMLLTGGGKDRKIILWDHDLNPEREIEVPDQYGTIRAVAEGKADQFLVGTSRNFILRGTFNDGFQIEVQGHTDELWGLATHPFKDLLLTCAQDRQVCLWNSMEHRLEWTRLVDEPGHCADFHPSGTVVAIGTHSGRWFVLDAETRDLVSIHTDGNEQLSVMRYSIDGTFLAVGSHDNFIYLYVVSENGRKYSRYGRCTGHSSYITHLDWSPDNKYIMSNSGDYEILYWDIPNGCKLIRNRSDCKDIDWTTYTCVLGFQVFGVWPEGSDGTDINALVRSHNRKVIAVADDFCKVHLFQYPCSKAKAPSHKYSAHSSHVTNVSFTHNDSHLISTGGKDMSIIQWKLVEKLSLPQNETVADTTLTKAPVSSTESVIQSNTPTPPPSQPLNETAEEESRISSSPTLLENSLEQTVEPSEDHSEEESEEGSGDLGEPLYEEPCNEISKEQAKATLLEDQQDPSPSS
Chain of Protein cereblon/ALK tyrosine kinase receptor/Echinoderm microtubule-associated protein-like 4 (Homo sapiens) (Q9UM73 19-1620 limits assumed): as the sequence (Q9UM73 19-1620 limits assumed) above

By IC50 is commonly meant the concentration that gives 50% inhibition. As a reminder, the EC50 is the concentration at which the effect is half-maximal. In general, CL/F refers to the apparent clearance, not corrected for the fraction that reaches the circulation. As a reminder, the Tmax is the time from dosing to the highest level. A word on the Vd: it is a proportionality between amount in the body and measured concentration, not a real space. Usually AUC(0-t) stands for exposure summed from dosing to a finite time, without extrapolation to infinity. Broadly, the inhibition is the percentage by which the read-out fell short of the control. `CCc1cc2c(cc1N1CCN(C(=O)CNc3cccc4c3C(=O)N(C3CCC(=O)NC3=O)C4=O)CC1)C(C)(C)c1[nH]c3cc(C#N)ccc3c1C2=O` (centres undefined): the outcome (in the data set with KARPAS-299 [1]; in the data set on KARPAS-299 [3]; in the data set with KARPAS-299 [4]; in data set [7]; in the data set on KARPAS-299 [9]; in the data set with KARPAS-299 [11]) was Active. Besides, the Activity entry in data set [2] was “Non-Toxic”; in data set [6], “Non-Toxic”; in data set [13] it was “Non-Toxic”; in data set [18], 85%; in [19], 22.6%. The figures for the IC50 (in [5]; in the data set with NCI-H3122) were 13600 nM and 62 nM, respectively. Also, the viability at 1 µM with BaF3 [8] came to 116%; in the data set on BaF3 [10] it was 0.1%; in the data set on BaF3 [17], 6.1%; in the data set with BaF3 [20], 0.1%. Further, the concentration for a half-maximal effect (EC50) in data set [12] was 116 nM. The compound further gave a CL/F in [14] of 743 mL/min/kg. Besides, in the data set with KARPAS-299 [15], the inhibition in vivo at 10 mg/kg came out at 75.8%. In addition, in data set [16], the time to peak (Tmax) is 15 min. In [21], this compound showed a volume of distribution (Vd) of 3.89 L/kg. Further, the AUC(0-t) at 24 h in [22] worked out at 546 ng·h/mL. For the same compound, the inhibition in data set [23] was more than 85%.
